Laboratory results reported in patent US10653715B2, “Methods and compositions for extending lifespan” (priority 2016, dated 2020).
Values joined by “and” are separate entries in the source; they are usually repeats but may differ in a detail not shown here. Identical values can stand only once.

Tested on: B6C3F1/J mice
Experiment: Large-scale lifespan screen of compounds in long-lived B6C3F1 hybrid mice
Format: in vivo, mouse
Conditions: for extension of maximal lifespan: maximal lifespan = average lifespan of the 20% longest-lived mice; for extension of mean lifespan: 15 per compound, dosed from 5 months of age throughout lifespan, relative to untreated controls
Excerpt: The majority of compounds included drugs currently used in medicine and drug-like molecules, with wide range of targets that span the entire pharmacological space.
The compounds were clustered into 62 drug classes based on their mechanism of action or cellular target. Screening a wide range of known compounds could potentially resolve two challenges. First, to analyze how distinct drug classes with common mechanisms of action affect aging in mammals. Second, to determine with no bias or predispositions which of the current pharmacological drugs can extend lifespan.
In this study, the inventors used a strain of long-lived B6C3F1 hybrid mice (C57BL/6J♀×C3H/HeJ♂) with well-characterized aging dynamics (Lipman 1999, Turturro, 1999). […] Each treatment group included 15 female mice per compound, while 335 females were used as controls. Three additional control groups included 60 female mice on dietary restriction (60% ad libitum), 60 female mice on a purified diet, and 60 male mice as gender control. Each compound treatment and diet intervention were administered to mice starting at 5 months of age, and continued throughout their lifespan. The primary endpoint was mouse mortality, from which we calculated mean lifespan, maximal lifespan, and the onset of morbidity for each experimental group. To calculate the statistical significance, the mean lifespan, maximal lifespan, and the onset of morbidity for each individual compound and drug class were compared to the lifespan distribution of untreated mice. […]

[1] = B6C3F1/J mice, compared to the lifespan distribution of untreated mice
[2] = female B6C3F1/J mice, dosed from 5 months of age, relative to controls

Molecule	effect on mean and/or maximal lifespan (in words) [1]	effect on mean and/or maximal lifespan (in words) (mouse, in vivo)	extension of mean lifespan (female B6C3F1/J mice)	other results
C[C@]12CC[C@@H]3c4ccc(O)cc4CC[C@H]3[C@@H]1CC[C@@H]2O [17β-estradiol]	significantly shortened			reduction of mean lifespan [2]: 21%
CCOC(=O)C(C)(C)Oc1ccc(Cl)cc1 [Clofibrate]				extension of maximal lifespan [2]: 20.9%; extension of maximal lifespan (female B6C3F1/J mice, dosed from 5 months of age, relative to controls, listed as clofibrate): 21%
CC(=O)[O-].CC(=O)[O-].[Mg+2] [Magnesium Acetate]		significantly extended		
[Cl-].[Cl-].[Mg+2] [Magnesium Chloride]		significantly extended		
[Mg+2].[OH-].[OH-] [Magnesium Hydroxide]		significantly extended		
O=C(O)CN(CCN(CC(=O)O)CC(=O)O)CCN(CC(=O)O)CC(=O)O [Pentetic acid, diethylene triamene pentaacetic acid]	significantly extended		16.1%	extension of mean lifespan (female B6C3F1/J mice, listed as pentetic acid): 16%
C[C@@H]1O[C@@H](O[C@@H]2C=C3CC[C@@H]4[C@H](CC[C@]5(C)[C@@H](c6ccc(=O)oc6)CC[C@]45O)[C@@]3(C)CC2)[C@H](O)[C@H](O)[C@H]1O [Proscillaridin A]	significantly extended		16% and 16.4%	extension of onset of morbidity [2]: 40% and 39.9%
Inulin	significantly extended		16%	extension of maximal lifespan [2]: 18%
